Reference: paper PMC8830175, “Bex1 is essential for ciliogenesis and harbours biomolecular condensate-forming capacity” (BMC Biology, 2022)

Target: T1, Bex1 (recombinant Bex1 protein) (Mus musculus, UniProt Q9R224)
T1 construct: N-terminal hexahistidine tag (pETDuet-1), expressed in E. coli Rosetta-gami 2(DE3)pLysS, non-denaturing Ni-NTA purification, 15N-labelled; tag removal not mentioned
T1 sequence (Q9R224 1-128): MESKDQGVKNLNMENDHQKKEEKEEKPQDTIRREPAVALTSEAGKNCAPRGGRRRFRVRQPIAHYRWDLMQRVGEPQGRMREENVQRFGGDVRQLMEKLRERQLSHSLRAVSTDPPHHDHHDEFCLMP
Assay: 2D 1H-15N HSQC NMR titration (chemical shift perturbation)
Assay type: binding
Text: 2D 1H-15N HSQC NMR titration (chemical shift perturbation) on Bex1 (recombinant Bex1 protein) | The peak shift of Bex1 was GTP concentration-dependent with the dissociation constant (Kd) equal to […]

Nc1nc2c(ncn2[C@@H]2O[C@H](COP(=O)(O)OP(=O)(O)OP(=O)(O)O)[C@@H](O)[C@H]2O)c(=O)[nH]1 [GTP]
Kd: 244 ± 98 µM
